Test results taken from ChEMBL document CHEMBL1201862, “PubChem BioAssay data set” (2004).
Calls of active or inactive are those of the source.

Assays:
[1] = inhibitors of Vif binding to APOBEC3G peptide, primary screen, biochemical, TR-FRET, GST-Vif 1-94, biotin-A3G peptide, dose response retest (AID 1117319); format: functional;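 also: TR-FRET signal of purified GST-Vif binding a biotinylated A3G peptide; inhibitors lower the FRET signal by blocking Vif and A3G binding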
[2] = A cytotoxicity screen of small molecule inhibitors of the PhoP region in Salmonella typhi identified in the primary screen. [Related pubchem assays: 1850, 1864, 1985 ]; format: functional
[3] = target: T1, Heat shock factor protein 1 (Mus musculus, UniProt P38532); assay: inhibition of MG132-induced HSE-luciferase signal, confirmation, cell-based, NIH3T3, luminescence, dose retest (AID 2382); format: functional;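 also: NIH3T3 fibroblasts with HSF1-driven luciferase reporter stressed by proteasome inhibitor MG132; luminescence from HSF1-driven luciferase expression after 8 hours of MG132 stress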
T1 sequence (P38532 whole entry): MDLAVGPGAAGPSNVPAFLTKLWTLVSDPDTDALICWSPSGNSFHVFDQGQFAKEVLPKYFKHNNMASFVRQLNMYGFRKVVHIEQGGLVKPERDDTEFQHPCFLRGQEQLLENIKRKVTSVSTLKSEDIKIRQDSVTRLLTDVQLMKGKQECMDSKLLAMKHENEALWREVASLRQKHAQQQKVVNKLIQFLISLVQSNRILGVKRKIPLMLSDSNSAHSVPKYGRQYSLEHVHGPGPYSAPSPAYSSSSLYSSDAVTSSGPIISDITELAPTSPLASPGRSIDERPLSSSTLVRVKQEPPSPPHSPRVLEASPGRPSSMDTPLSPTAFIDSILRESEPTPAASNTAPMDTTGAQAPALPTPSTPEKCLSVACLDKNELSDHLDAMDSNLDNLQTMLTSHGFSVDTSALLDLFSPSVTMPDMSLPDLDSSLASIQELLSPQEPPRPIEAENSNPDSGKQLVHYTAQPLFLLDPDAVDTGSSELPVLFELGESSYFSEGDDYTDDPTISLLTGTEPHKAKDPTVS

[4] = HeLa 4N DNA content increase, dose response, cell-based, IC50 (AID 1117351); format: functional
[5] = HeLa 2N DNA content increase, dose response, cell-based, IC50 (AID 1117349); format: functional
[6] = cells
[7] = target: Major prion protein (Homo sapiens, UniProt P04156); format: functional, cell-based
[8] = target: T2, Cytochrome P450 1A2 (Homo sapiens, UniProt P05177);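 also: PubChem cytochrome P450 panel assay, CYP1A2 panel member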
T2 sequence (P05177 whole entry): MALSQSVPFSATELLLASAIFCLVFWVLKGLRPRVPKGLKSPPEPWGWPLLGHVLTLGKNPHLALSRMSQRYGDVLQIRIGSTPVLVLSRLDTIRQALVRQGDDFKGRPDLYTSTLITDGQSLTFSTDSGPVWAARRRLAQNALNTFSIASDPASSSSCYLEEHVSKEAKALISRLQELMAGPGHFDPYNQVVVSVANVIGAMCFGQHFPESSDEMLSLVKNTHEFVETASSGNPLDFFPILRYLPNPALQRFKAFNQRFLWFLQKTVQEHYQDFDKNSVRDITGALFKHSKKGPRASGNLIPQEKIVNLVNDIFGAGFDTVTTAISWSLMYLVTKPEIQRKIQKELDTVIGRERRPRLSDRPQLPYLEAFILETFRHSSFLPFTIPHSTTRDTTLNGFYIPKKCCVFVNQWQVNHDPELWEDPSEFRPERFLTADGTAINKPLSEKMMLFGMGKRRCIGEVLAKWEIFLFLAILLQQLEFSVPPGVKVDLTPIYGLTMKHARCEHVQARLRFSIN

[9] = target: Glyceraldehyde-3-phosphate dehydrogenase (Homo sapiens, UniProt P04406)
[10] = target: T3, Estrogen receptor (Homo sapiens, UniProt P03372);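 also: potency for inhibiting coactivator peptide recruitment to the receptor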
T3 sequence (P03372 whole entry): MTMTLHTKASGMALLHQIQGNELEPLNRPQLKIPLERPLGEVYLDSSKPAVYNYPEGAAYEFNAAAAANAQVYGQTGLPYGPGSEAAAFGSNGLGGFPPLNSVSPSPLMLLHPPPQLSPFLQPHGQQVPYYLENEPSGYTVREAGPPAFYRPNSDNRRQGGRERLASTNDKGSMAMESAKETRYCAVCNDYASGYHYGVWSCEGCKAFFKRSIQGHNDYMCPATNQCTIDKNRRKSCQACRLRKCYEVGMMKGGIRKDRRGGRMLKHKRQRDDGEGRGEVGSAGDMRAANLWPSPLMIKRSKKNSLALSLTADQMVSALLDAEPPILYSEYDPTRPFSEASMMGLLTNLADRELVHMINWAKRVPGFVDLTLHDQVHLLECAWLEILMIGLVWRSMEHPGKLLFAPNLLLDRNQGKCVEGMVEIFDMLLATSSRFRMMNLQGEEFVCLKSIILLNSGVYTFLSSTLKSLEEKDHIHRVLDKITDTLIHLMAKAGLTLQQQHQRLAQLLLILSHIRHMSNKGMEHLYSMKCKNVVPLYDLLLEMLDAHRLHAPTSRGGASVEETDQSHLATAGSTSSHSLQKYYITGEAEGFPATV

[11] = cytotoxicity toward NIH3T3 fibroblasts, dose response, counter-screen, cell-based, ATP luminescence, mouse fibroblasts (AID 2010); format: functional;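 also: cells exposed to compound for about 90 hours before reading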
[12] = inhibitors of intracellular T. cruzi replication, confirmation, NIH3T3 host cells, beta-gal luminescence (AID 2044); format: functional, cell-based;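 also: intracellular parasites grown in NIH/3T3 mouse fibroblasts as host cells; luminescent beta-galactosidase reporter signal from transgenic T. cruzi replicating inside host cells; inhibitors lower the luminescence signal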
[13] = target: T4, Histone-lysine N-methyltransferase NSD2 (Homo sapiens, UniProt O96028); format: biochemical
T4 sequence (O96028 whole entry): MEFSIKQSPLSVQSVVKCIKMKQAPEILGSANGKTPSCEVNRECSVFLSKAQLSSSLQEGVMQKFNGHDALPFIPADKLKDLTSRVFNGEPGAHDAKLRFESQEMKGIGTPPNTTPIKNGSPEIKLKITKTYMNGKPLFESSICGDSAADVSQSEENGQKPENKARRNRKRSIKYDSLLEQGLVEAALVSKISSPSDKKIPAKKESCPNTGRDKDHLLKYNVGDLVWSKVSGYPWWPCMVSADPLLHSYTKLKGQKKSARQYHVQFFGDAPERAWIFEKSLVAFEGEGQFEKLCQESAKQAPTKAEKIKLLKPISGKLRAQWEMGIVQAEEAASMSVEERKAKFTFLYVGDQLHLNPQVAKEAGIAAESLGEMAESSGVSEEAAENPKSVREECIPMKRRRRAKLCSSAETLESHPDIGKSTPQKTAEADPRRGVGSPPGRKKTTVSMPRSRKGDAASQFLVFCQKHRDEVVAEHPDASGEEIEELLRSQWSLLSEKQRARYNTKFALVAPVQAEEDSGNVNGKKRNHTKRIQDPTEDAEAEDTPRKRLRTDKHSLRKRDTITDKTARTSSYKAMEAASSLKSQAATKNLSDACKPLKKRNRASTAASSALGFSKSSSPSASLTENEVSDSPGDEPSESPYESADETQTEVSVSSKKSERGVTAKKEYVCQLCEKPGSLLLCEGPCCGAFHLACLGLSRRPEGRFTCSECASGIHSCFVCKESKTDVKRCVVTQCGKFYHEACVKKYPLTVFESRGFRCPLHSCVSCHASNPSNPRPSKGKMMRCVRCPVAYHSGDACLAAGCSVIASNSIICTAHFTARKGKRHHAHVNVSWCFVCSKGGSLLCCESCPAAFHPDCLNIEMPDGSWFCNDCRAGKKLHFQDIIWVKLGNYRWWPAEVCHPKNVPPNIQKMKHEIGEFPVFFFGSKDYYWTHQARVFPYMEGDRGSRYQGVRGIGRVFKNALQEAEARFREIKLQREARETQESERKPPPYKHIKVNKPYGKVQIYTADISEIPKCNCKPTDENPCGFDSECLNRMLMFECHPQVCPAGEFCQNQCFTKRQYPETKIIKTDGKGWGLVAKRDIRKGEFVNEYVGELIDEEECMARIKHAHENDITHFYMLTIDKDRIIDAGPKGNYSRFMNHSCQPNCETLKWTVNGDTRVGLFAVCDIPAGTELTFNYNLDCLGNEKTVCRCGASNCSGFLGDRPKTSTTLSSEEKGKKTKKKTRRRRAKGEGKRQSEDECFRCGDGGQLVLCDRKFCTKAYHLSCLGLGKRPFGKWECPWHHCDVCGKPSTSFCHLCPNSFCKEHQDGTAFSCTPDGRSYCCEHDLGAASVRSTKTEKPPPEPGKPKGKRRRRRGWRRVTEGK

[14] = test system: Streptococcus; assay: Group A Streptococcus viability loss, dose response, counter-screen for streptokinase expression inhibitor project, luminescence, BacTiterGlo (AID 1915); format: functional, organism-based;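 also: potency for reduction of bacterial viability or growth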
[15] = HEp-2 cell cytotoxicity, dose response, cytotoxicity control for RSV inhibitor project, HTS (AID 2410); format: functional; conditions: human respiratory syncytial virus
[16] = test system: Streptococcus sp. 'group A'; assay: growth inhibition of control SK(-) GAS strain, dose response, counter-screen for streptokinase expression inhibitor project, luminescence, kanamycin, BacTiterGlo, confirmation (AID 1900); format: functional, organism-based
[17] = target: T5, Streptokinase A (Streptococcus pyogenes serotype M1, UniProt P10520); assay: S. pyogenes streptokinase expression inhibitors, potency, dose response, plasminogen activation absorbance, OD405 (AID 1914); format: functional, Streptococcus pyogenes M1 GAS;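 also: secreted streptokinase activity via plasminogen activation per viability signal from cell pellet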
T5 sequence (P10520 whole entry): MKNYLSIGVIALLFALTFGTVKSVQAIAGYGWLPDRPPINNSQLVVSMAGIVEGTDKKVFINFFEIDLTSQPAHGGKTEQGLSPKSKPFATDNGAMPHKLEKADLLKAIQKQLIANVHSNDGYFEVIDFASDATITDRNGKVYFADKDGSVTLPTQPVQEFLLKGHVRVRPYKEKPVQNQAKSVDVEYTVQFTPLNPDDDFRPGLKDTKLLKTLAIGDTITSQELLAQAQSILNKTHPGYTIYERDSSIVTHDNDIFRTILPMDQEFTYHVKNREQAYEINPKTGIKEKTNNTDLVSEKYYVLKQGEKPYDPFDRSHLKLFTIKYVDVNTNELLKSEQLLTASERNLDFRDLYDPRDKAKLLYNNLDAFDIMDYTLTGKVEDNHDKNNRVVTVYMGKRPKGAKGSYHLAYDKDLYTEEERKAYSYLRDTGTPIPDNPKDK

[18] = target: T6, Endoribonuclease toxin MazF (Escherichia coli K-12, UniProt P0AE70); assay: fluorescent RNA oligo signal without MazF, dose response, counter-screen for MazEF activator project, biochemical, fluorescence, single-stranded RNase substrate (AID 588502); format: functional
T6 sequence (P0AE70 whole entry): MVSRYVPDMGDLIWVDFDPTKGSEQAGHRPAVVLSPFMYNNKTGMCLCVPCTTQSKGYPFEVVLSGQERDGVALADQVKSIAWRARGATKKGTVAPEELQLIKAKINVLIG

[19] = target: T6, Endoribonuclease toxin MazF; assay: MazF toxin RNase activators, dose response, biochemical, fluorescence, single-stranded RNA substrate, uHTS hits (AID 588481); format: functional
[20] = THP-1 cell cytotoxicity, dose response, cytotoxicity control for Vif-APOBEC3G degradation inhibitor project, THP-1 cells (AID 1117359); format: functional; conditions: Human immunodeficiency virus 1, THP-1
[21] = Luminescence Cell-Based Dose Retest to Confirm Inhibitors of Cancer Stem Cells. [Related pubchem assays (depositor defined):AID2717, AID2721]; format: functional; conditions: Homo sapiens

## O=C(Cn1ccc([N+](=O)[O-])n1)N1CCCc2ccccc21
[1]
  IC50: > 100 µM (active)

## CS(=O)(=O)c1cnc2c(-c3ccsc3)cnn2c1N
[2]
  EC50: > 50 µM (active)

## COC(=O)COc1ccc2c(c1C)O/C(=C\c1ccco1)C2=O
[3]
  EC50: > 195 µM (not active)
[1]
  IC50: > 100 µM (active)

## C=CC(=O)Nc1cc2c(Nc3ccc(F)c(Cl)c3)ncnc2cc1OCCCN1CCOCC1 [CANERTINIB]
[4]
  IC50: > 10 µM (inactive)
[5]
  IC50: 8.87 µM (inactive)

## CCCc1nc(SCC(=O)NNC(=O)C2CCCCC2)c2ccccc2n1
[6]
  IC50: > 138 µM (inactive)
[7]
  IC50: 0.896 µM (active)
[8]
  AC50: 15.8 µM (inconclusive)

## NCCc1c(C(=O)O)[nH]c2ccc(S(N)(=O)=O)cc12
[9]
  IC50: > 100 µM (not active)

## CC1(C)OC(=O)C(=Cc2ccc(I)o2)C(=O)O1
[9]
  IC50: > 100 µM (not active)

## NC(=O)C1(N2CCCCC2)CCN(c2nc(-c3ccc(Br)cc3)cs2)CC1
[10]
  IC50: 37.8 µM (not active)
[11]
  EC50: > 60 µM (inconclusive)
[12]
  EC50: 1.78 µM (active)

## COc1ccc(-c2csc(Nc3ccc(S(=O)(=O)Nc4cc(C)on4)cc3)n2)cc1C
[13]
  AC50: 11.9 µM (active)
[14]
  EC50: 10.7 µM (active)
[15]
  CC50: 8.8 µM (active)
[16]
  EC50: 5.7 µM (active)
[17]
  EC50: > 150 µM (not active)

## O=C(Cc1cn2ccsc2n1)OCc1nc2ccccc2s1
[10]
  IC50: 6.98 µM (active)

## Cc1cc(O)c2ccccc2c1O [VITAMIN K3H2]
[4]
  IC50: > 10 µM (inactive)
[5]
  IC50: > 10 µM (inactive)

## Cc1oc(C)c2c(=O)ccc3c(c12)OC(N)=C(C#N)C3c1ccccc1 (stereo not given)
[18]
  EC50: > 99 µM (inactive)
[1]
  IC50: > 52.5 µM (active)
[19]
  EC50: > 99 µM (inactive)
[20]
  CC50: > 40 µM (active)

## CC(=O)NC(CSc1cc(C)nc2ccc(Br)cc12)C(=O)O (stereo not given)
[6]
  IC50: > 138 µM (inactive)
[7]
  IC50: 4.48 µM (active)

## Cc1c(Br)c(=O)oc2cc(OCC(=O)N3C[C@H]4C[C@@H](C3)c3cccc(=O)n3C4)ccc12
[6]
  IC50: > 138 µM (inactive)
[7]
  IC50: 8.34 µM (active)

## CCC(C)(C)NC(=O)COc1ccc(C(=O)c2ccccc2)cc1
[2]
  EC50: > 50 µM (active)

## Cc1c(Br)cc(C(=O)NCc2ccco2)c(C)c1C
[10]
  IC50: > 50 µM (not active)

## CC(=O)Nc1ccc2nc(C)cc(O)c2c1
[10]
  IC50: 21 µM (active)

## CCN(CC)CCCNC(=O)c1cc2c(Cl)nc3ccccc3c2s1
[13]
  AC50: 16.8 µM (active)
[21]
  AC50: 1.58 µM (active)
